IC50 data for 44 molecules are collected here from patent US20220281863A1, “COMPOUNDS, COMPOSITIONS AND METHODS OF TREATING DISORDERS” (Reverie Labs, Inc., priority 2019, published 2022).

For this assay, the target named is T1, CDK9/CycTI (Homo sapiens, UniProt P50750).
T1 construct: purchased Carna biosciences 04-110
T1 sequence (P50750 whole entry): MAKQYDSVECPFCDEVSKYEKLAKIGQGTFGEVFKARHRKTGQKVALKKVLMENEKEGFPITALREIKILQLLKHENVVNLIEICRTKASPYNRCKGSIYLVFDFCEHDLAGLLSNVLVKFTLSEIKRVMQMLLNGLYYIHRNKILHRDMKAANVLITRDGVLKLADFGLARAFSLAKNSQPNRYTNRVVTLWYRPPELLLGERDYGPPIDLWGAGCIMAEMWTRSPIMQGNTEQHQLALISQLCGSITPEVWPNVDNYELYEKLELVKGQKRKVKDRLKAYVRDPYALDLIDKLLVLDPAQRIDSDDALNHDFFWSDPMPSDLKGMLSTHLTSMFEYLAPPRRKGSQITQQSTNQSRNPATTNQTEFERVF
T1 sequence (O60563 whole entry partner): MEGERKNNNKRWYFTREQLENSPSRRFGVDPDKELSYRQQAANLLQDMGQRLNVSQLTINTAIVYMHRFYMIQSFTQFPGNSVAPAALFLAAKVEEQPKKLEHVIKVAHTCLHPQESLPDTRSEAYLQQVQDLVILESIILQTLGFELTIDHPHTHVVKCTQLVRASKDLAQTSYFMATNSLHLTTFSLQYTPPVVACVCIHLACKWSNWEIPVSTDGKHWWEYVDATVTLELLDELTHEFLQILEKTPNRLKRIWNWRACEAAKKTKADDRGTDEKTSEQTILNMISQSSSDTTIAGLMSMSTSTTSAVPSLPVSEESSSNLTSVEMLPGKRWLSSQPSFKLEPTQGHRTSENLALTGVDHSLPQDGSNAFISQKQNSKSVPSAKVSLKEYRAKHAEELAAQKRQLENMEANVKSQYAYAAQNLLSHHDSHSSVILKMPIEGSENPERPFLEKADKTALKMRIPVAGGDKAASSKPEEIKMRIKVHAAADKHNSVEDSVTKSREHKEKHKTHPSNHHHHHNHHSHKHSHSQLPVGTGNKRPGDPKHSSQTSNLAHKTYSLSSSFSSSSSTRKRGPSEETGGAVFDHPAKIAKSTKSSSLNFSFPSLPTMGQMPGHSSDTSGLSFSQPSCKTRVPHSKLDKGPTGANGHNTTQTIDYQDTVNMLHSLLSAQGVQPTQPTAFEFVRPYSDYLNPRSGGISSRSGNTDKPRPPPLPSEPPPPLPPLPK
Put plainly: In vitro kinase assay (ADP-Glo Kinase Assay Kit), CDK9/CycTI. It counts as biochemical. The note with it: 30 ng CDK9/CycTI, 30 μM CDKtide, 10 μM ATP, 2 hours at room temperature; 8 to 10-point dose response (Tier2); read-out: IC50 Score. As to the method:
In vitro kinase assay was performed in white, 384-low volume plates in 5 μl reaction volume consisting of 30 ng CDK9/CycTI (Carna biosciences #04-110), 30 μM CDKtide (Signalchem #C06-58) and 10 μM ATP made in reaction buffer (40 mM Tris, pH 7.5; 20 mM MgCl2; 0.1 mg/ml BSA; 50 μM DTT) at 1 μM & 10 μM compound concentration for Tier1 assay and 8 to 10-point dose response curve for Tier2 assay. After 2 hours of incubation at room temperature, the amounts of […] in the kinase reaction were quantified using ADP-Glo™ Kinase Assay Kit (Promega #V9102). Briefly, 5 μl of ADP-Glo™ reagent was added to stop the kinase reaction and plate was incubated for 40 minutes at room temperature. Subsequently, 10 μl of Kinase Detection Reagent was added and luminescence was recorded after 30 minutes of incubation at room temperature.
The inhibition of kinase activity was determined relative to positive control (2% DMSO) and IC50 was calculated using GraphPad prism software (four parameter-variable slope equation).
As for `CC(=O)N(C)[C@@H]1CCC[C@H](C(=O)Nc2nc3ccc4cc(F)ccc4c3s2)C1` [Compound 22], the IC50 is 0.1 to 0.5 µM.

With `O=C(Nc1nc2ccc3cc(F)ccc3c2s1)c1cn[nH]c1` [Compound 50, N-(7-fluoronaphtho[2,1-d]thiazol-2-yl)-1H-pyrazole-4-carboxamide], the IC50 fell in the range of 1 to 20 µM.

Turning to `CC(=O)N1CC(C(=O)Nc2nc3ccc4cc(F)ccc4c3s2)C1` [Compound 28, 1-acetyl-N-(7-fluoronaphtho[2,1-d]thiazol-2-yl)azetidine-3-carboxamide], the IC50 was 0.1 to 0.5 µM.

For the molecule `CS(=O)(=O)N[C@@H]1CCC[C@H](C(=O)Nc2nc3c(s2)-c2ccc(F)cc2CC3)C1` [Compound 13-b, (1S,3R)—N-(7-fluoro-4,5-dihydronaphtho[2,1-d]thiazol-2-yl)-3-(methylsulfonamido)cyclohexane-1-carboxamide], the half-inhibitory concentration (IC50) was in the range of 0.1 to 0.5 µM.

For the molecule `O=C(Nc1nc2ccc3cc(F)ccc3c2s1)c1c[nH]cn1` [Compound 53, N-(7-fluoronaphtho[2,1-d]thiazol-2-yl)-1H-imidazole-4-carboxamide], the IC50 was in the range of 1 to 20 µM.

Consider `CC(=O)N1CCOC[C@@H]1C(=O)Nc1nc2ccc3cc(F)ccc3c2s1` [Compound 19, (R)-4-acetyl-N-(7-fluoronaphtho[2,1-d]thiazol-2-yl)morpholine-3-carboxamide], for which the concentration for half-maximal inhibition (IC50) was in the range of 0.001 to 0.1 µM.

Take `CC(=O)N1CCCC[C@@H]1C(=O)Nc1nc2ccc3cc(F)ccc3c2s1` [Compound 21]: the IC50 fell in the range of 0.001 to 0.1 µM.

`CC(=O)N1CC[C@H](C(=O)Nc2nc3ccc4cc(F)ccc4c3s2)C1` [Compound 52, (S)-1-acetyl-N-(7-fluoronaphtho[2,1-d]thiazol-2-yl)pyrrolidine-3-carboxamide]: the IC50 was 0.001 to 0.1 µM.

`O=C(CCl)N[C@@H]1CCC[C@H](C(=O)Nc2nc3ccc4cc(F)ccc4c3s2)C1` [Compound 75]: the IC50 was 0.001 to 0.1 µM.

Turning to `O=C(Nc1nc2ccc3cc(F)ccc3c2s1)C1CCNC1` (racemic) [Compound 83, N-(7-fluoronaphtho[2,1-d]thiazol-2-yl)pyrrolidine-3-carboxamide], the IC50 was 0.001 to 0.1 µM.

For the molecule `CC(=O)N1CCC[C@@H](C(=O)Nc2nc3ccc4cc(F)ccc4c3s2)C1` [Compound 38, 1-acetyl-N-(7-fluoronaphtho[2,1-d]thiazol-2-yl)piperidine-3-carboxamide], the IC50 is 0.1 to 0.5 µM.

For `CC(=O)N1CCC[C@H]1C(=O)Nc1nc2ccc3cc(F)ccc3c2s1` [Compound 5, (S)-1-acetyl-N-(7-fluoronaphtho[2,1-d]thiazol-2-yl)pyrrolidine-2-carboxamide], the IC50 was in the range of 1 to 20 µM.

Take `CC(=O)N1CCC[C@@H]1C(=O)Nc1nc2c(s1)-c1ccc(F)cc1CC2` [Compound 6, (R)-1-acetyl-N-(7-fluoro-4,5-dihydronaphtho[2,1-d]thiazol-2-yl)pyrrolidine-2-carboxamide]: the concentration for half-maximal inhibition (IC50) fell in the range of 0.5 to 1 µM.

Take `CC(C)(C)OC(=O)N1CCCC[C@@H]1C(=O)Nc1nc2ccc3cc(F)ccc3c2s1` [Compound 23]: the IC50 was in the range of 0.001 to 0.1 µM.

As for `CC(=O)N[C@H]1CCC[C@@H](C(=O)Nc2nc3ccc4cc(F)ccc4c3s2)C1` [Compound 79, (1R,3S)-3-acetamido-N-(7-fluoronaphtho[2,1-d]thiazol-2-yl)cyclohexane-1-carboxamide], the IC50 was in the range of 0.001 to 0.1 µM.

`CC(=O)N1CCNCC1C(=O)Nc1nc2ccc3cc(F)ccc3c2s1` (single isomer, unassigned) [Compound 18-b, 1-acetyl-N-(7-fluoronaphtho[2,1-d]thiazol-2-yl)piperazine-2-carboxamide]: the IC50 is 1 to 20 µM.

As to `CC(C)(C)OC(=O)N1CCC[C@H](C(=O)Nc2nc3ccc4cc(F)ccc4c3s2)C1` [Compound 62, tert-butyl (S)-3-((7-fluoronaphtho[2,1-d]thiazol-2-yl)carbamoyl)piperidine-1-carboxylate], the IC50 fell in the range of 1 to 20 µM.

On to `CC(=O)N1CCC(C(=O)Nc2nc3ccc4cc(F)ccc4c3s2)C1` (single isomer, unassigned) [Compound 36, 1-acetyl-N-(7-fluoronaphtho[2,1-d]thiazol-2-yl)pyrrolidine-3-carboxamide], for which the half-maximal inhibitory concentration (IC50) fell in the range of 0.001 to 0.1 µM.

Consider `CN1CCC(C(=O)Nc2nc3ccc4cc(F)ccc4c3s2)C1` (centres unmarked) [Compound 65, N-(7-fluoronaphtho[2,1-d]thiazol-2-yl)-1-methylpyrrolidine-3-carboxamide], for which the IC50 was 0.1 to 0.5 µM.

`O=C(Nc1nc2ccc3cc(F)ccc3c2s1)[C@H]1CCCO1` [Compound 10, (R)—N-(7-fluoronaphtho[2,1-d]thiazol-2-yl)tetrahydrofuran-2-carboxamide]: the IC50 was in the range of 0.1 to 0.5 µM.

Regarding `O=C1CC[C@@H](C(=O)Nc2nc3ccc4cc(F)ccc4c3s2)N1` [Compound 8, (S)—N-(7-fluoronaphtho[2,1-d]thiazol-2-yl)-5-oxopyrrolidine-2-carboxamide], the IC50 was 0.001 to 0.1 µM.

As for `O=C(Nc1nc2ccc3ccccc3c2s1)[C@H]1CCCN1` [Compound 2, (R)—N-(naphtho[2,1-d]thiazol-2-yl)pyrrolidine-2-carboxamide], the IC50 fell in the range of 1 to 20 µM.

Take `CC(=O)N1CCCC[C@H]1C(=O)Nc1nc2ccc3cc(F)ccc3c2s1` (single isomer, unassigned) [Compound 67]: the IC50 is 1 to 20 µM.

With `O=C(Nc1nc2ccc3cc(F)ccc3c2s1)[C@H]1CCOC1` [Compound 42], the IC50 was 0.1 to 0.5 µM.

Turning to `CC(=O)N1CCC[C@H](C(=O)Nc2nc3ccc4cc(F)ccc4c3s2)C1` [Compound 45, (S)-1-acetyl-N-(7-fluoronaphtho[2,1-d]thiazol-2-yl)piperidine-3-carboxamide], the IC50 lay within 0.001 to 0.1 µM.

In the case of `CC(=O)Nc1nc2ccc3cc(F)ccc3c2s1` [Compound 12, N-(7-fluoronaphtho[2,1-d]thiazol-2-yl)acetamide], the IC50 fell in the range of 0.1 to 0.5 µM.

For the molecule `CC(=O)N[C@@H]1CC[C@H](C(=O)Nc2nc3ccc4cc(F)ccc4c3s2)C1` [Compound 25], the IC50 lay within 0.5 to 1 µM.

Consider `CN1CCC(C(=O)Nc2nc3ccc4cc(F)ccc4c3s2)C1` (single isomer, unassigned) [Compound 48, N-(7-fluoronaphtho[2,1-d]thiazol-2-yl)-1-methylpyrrolidine-3-carboxamide], for which the IC50 was in the range of 0.001 to 0.1 µM.

With `CN(C)[C@@H]1CC[C@H](C(=O)Nc2nc3ccc4cc(F)ccc4c3s2)C1` [Compound 39], the IC50 was in the range of 0.001 to 0.1 µM.

As for `C=CC(=O)N[C@H]1CCC[C@@H](C(=O)Nc2nc3ccc4cc(F)ccc4c3s2)C1` [Compound 33, (1R,3S)-3-acrylamido-N-(7-fluoronaphtho[2,1-d]thiazol-2-yl)cyclohexane-1-carboxamide], the IC50 lay within 0.1 to 0.5 µM.

As for `O=C1CC[C@@H](C(=O)Nc2nc3ccc4ccccc4c3s2)N1` [Compound 11, (S)—N-(naphtho[2,1-d]thiazol-2-yl)-5-oxopyrrolidine-2-carboxamide], the IC50 is 0.001 to 0.1 µM.

Regarding `CC(=O)N1CC[C@@H]1C(=O)Nc1nc2ccc3cc(F)ccc3c2s1` [Compound 69, (R)-1-acetyl-N-(7-fluoronaphtho[2,1-d]thiazol-2-yl)azetidine-2-carboxamide], the IC50 was 0.001 to 0.1 µM.

`CC(C)(C)OC(=O)N1CCC(C(=O)Nc2nc3ccc4cc(F)ccc4c3s2)CC1` [Compound 40]: the IC50 is 1 to 20 µM.

`O=C(Nc1nc2ccc3cc(F)ccc3c2s1)c1nncs1` [Compound 80]: the IC50 was 1 to 20 µM.

Regarding `N[C@H]1CCC[C@@H](C(=O)Nc2nc3ccc4cc(F)ccc4c3s2)C1` [Compound 63, (1R,3S)-3-amino-N-(7-fluoronaphtho[2,1-d]thiazol-2-yl)cyclohexane-1-carboxamide], the IC50 was in the range of 0.1 to 0.5 µM.

Consider `O=C(Nc1nc2ccc3cc(F)ccc3c2s1)[C@@H]1CCOC1` [Compound 60, (R)—N-(7-fluoronaphtho[2,1-d]thiazol-2-yl)tetrahydrofuran-3-carboxamide], for which the IC50 lay in the range of 0.001 to 0.1 µM.

With `N[C@@H]1CC[C@H](C(=O)Nc2nc3ccc4cc(F)ccc4c3s2)C1` [Compound 26], the IC50 lay within 0.001 to 0.1 µM.

For the molecule `CC(=O)N1CCC(C(=O)Nc2nc3ccc4cc(F)ccc4c3s2)CC1` [Compound 86], the IC50 lay in the range of 0.001 to 0.1 µM.

As for `O=C(Nc1nc2ccc3cc(F)ccc3c2s1)[C@@H]1CCCCN1` [Compound 68], the IC50 lay within 0.5 to 1 µM.

Take `CC(=O)N(C)[C@@H]1CC[C@H](C(=O)Nc2nc3ccc4cc(F)ccc4c3s2)C1` [Compound 71, (1S,3R)—N-(7-fluoronaphtho[2,1-d]thiazol-2-yl)-3-(N-methylacetamido)cyclopentane-1-carboxamide]: the IC50 is 0.001 to 0.1 µM.

Consider `CC(=O)N1CCCC[C@H]1C(=O)Nc1nc2ccc3cc(F)ccc3c2s1` [Compound 27, (S)-1-acetyl-N-(7-fluoronaphtho[2,1-d]thiazol-2-yl)piperidine-2-carboxamide], for which the IC50 is 0.001 to 0.1 µM.

For the molecule `CN1CCC(C(=O)Nc2nc3ccc4cc(F)ccc4c3s2)C1` (single isomer, unassigned) [Compound 70, N-(7-fluoronaphtho[2,1-d]thiazol-2-yl)-1-methylpyrrolidine-3-carboxamide], the half-inhibitory concentration (IC50) was in the range of 0.001 to 0.1 µM.

As for `CC(=O)N[C@H]1CCC[C@H](C(=O)Nc2nc3ccc4cc(F)ccc4c3s2)C1` [Compound 16, (1S,3S)-3-acetamido-N-(7-fluoronaphtho[2,1-d]thiazol-2-yl)cyclohexane-1-carboxamide], the IC50 lay within 0.001 to 0.1 µM.

As to `CC(=O)N1CCC(C(=O)Nc2nc3ccc4cc(F)ccc4c3s2)C1` (racemic) [Compound 55, 1-acetyl-N-(7-fluoronaphtho[2,1-d]thiazol-2-yl)pyrrolidine-3-carboxamide], the 50% inhibitory concentration (IC50) was in the range of 0.001 to 0.1 µM.
